A short description of data set [1]: Toxicity in brine shrimp. The format is organism-based. The settings on record: artemia, in vivo.
In the next data set the test system is Artemia. Nature of the data set: Toxicity in brine shrimp at 100 ug/mL. In kind it is organism-based. As to conditions: in vivo.

Structures are written as SMILES. In brackets after ≈: the same amount, converted by molar mass.

In the case of `COc1cc2ccc(=O)oc2cc1OC/C=C(\C)CC/C=C(/C)CO` [ARTEKEISKEANOL B], the 50% lethal concentration (LC50) – broadly, the concentration lethal to half of the exposed cells or organisms – in data set [1] is 70 µg/mL (≈ 203 µM).

For the molecule `COc1cc2ccc(=O)oc2c(OC)c1OC/C=C(\C)CC/C=C(\C)CO` [ARTEKEISKEANOL C], the Activity result with Artemia was “Non-toxic”.

As to `COc1cc2ccc(=O)oc2c(OC)c1OC/C=C(\C)CC/C=C(/C)CO` [ARTEKEISKEANOL D], in the data set on Artemia, the Activity entry was “Non-toxic”.

In turn, `COc1cc2ccc(=O)oc2cc1OC/C=C(\C)CC/C=C(\C)CO` [ARTEKEISKEANOL A] displayed a median lethal concentration (LC50) in data set [1] of 60 µg/mL (≈ 174 µM).

These data come from ChEMBL document CHEMBL1155750, “Four new coumarin derivatives from Artemisia keiskeana” (J Nat Prod, 2001).
